Data: US20050222100A1 (priority 2002, published 2005)

Assay: Pilot study: irregular vaginal bleeding
Assay type: in vivo, post-menopausal women
Conditions: 2.5 mg tibolone per day added to 20 mg tamoxifen per day
Text: The women, all below the age of 65 years, were postmenopausal for at least three years at the time of diagnosis. Their follicle stimulating hormone (FSH) levels were greater than 40 IU/L and their estradiol (E2) levels were below 20 pg/mL.

SMILES: C#C[C@]1(O)CC[C@H]2[C@@H]3[C@H](C)CC4=C(CCC(=O)C4)[C@H]3CC[C@@]21C [Tibolone, (7α, 17α)-17-hydroxy-7-methyl-19-nor-17-pregn-5(10)-en-20-yn-3-one]
- effect on irregular bleeding: minimal effect
